Several values for one entry are separate records, joined by “and”; a condition that tells them apart may be missing. Identical values can stand only once. Toxic doses and inconclusive results are not listed. The calls were made as follows: active = survival T/C of 150% or more; inactive = T/C below 125% in these data.
Test system: P388 leukemia ip, CD2F1 mice, survival T/C
Test: NCI In Vivo Anticancer Drug Screen. Data for tumor model P388 Leukemia (intraperitoneal) in CD2F1 (CDF1) mice
Details: endpoint: median survival time, higher = longer survival
How it was run: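 Mice carrying the transplanted tumor received test compound or vehicle. Survival was recorded in each group, and the value is the treated-group measurement divided by that of the vehicle-treated control group.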

[1] = dose: 50.0 mg/kg/injection, schedule: Q01DX009 (ip), vehicle: saline with Tween-80
[2] = dose: 100.0 mg/kg/injection, schedule: Q01DX009 (ip), vehicle: saline with Tween-80
[3] = dose: 200.0 mg/kg/injection, schedule: Q01DX009 (ip), vehicle: saline with Tween-80
[4] = dose: 50.0 mg/kg/injection, schedule: Q01DX005 (ip), vehicle: saline with Tween-80
[5] = dose: 100.0 mg/kg/injection, schedule: Q01DX005 (ip), vehicle: saline with Tween-80
[6] = dose: 200.0 mg/kg/injection, schedule: Q01DX005 (ip), vehicle: saline with Tween-80

Measured: T/C

CCOc1ccc2c(ccc(/C=C\c3cc(C)c4cccnc4c3O)[n+]2C)c1
inactive: dose: 3.13 mg/kg/injection, schedule: Q01DX009 (ip), vehicle: saline with Tween-80 121 % of control | dose: 6.25 mg/kg/injection, schedule: Q01DX009 (ip), vehicle: saline with Tween-80 121 % of control

COc1cc2c(cc1O)C(=O)CCC=C2
inactive: [1] 103 % of control | [2] 101 % of control | [3] 108 % of control

CSc1ncnc2c1ncn2C1OC(CO)C(O)C1O (configuration not stated)
inactive: dose: 2.0 mg/kg/injection, schedule: Q01DX010 (ip), vehicle: saline 107 % of control | dose: 4.0 mg/kg/injection, schedule: Q01DX010 (ip), vehicle: saline 102 % of control and 104 % of control | dose: 8.0 mg/kg/injection, schedule: Q01DX010 (ip), vehicle: saline 100 % of control and 116 % of control | dose: 16.0 mg/kg/injection, schedule: Q01DX010 (ip), vehicle: saline 109 % of control and 120 % of control | dose: 25.0 mg/kg/injection, schedule: Q01DX009 (ip), vehicle: saline with Tween-80 95 % of control | [1] 93 % of control | dose: 54.0 mg/kg/injection, schedule: Q01DX001 (ip), vehicle: saline 111 % of control | dose: 82.0 mg/kg/injection, schedule: Q01DX001 (ip), vehicle: saline 117 % of control and 118 % of control | [2] 104 % of control | [3] 101 % of control

c1ccc(C23CC2COP3(c2ccccc2)(c2ccccc2)c2ccccc2)cc1 (configuration not stated)
inactive: dose: 6.25 mg/kg/injection, schedule: Q01DX009 (ip), vehicle: suspension in saline 90 % of control | dose: 12.5 mg/kg/injection, schedule: Q01DX009 (ip), vehicle: suspension in saline 98 % of control | dose: 25.0 mg/kg/injection, schedule: Q01DX009 (ip), vehicle: suspension in saline 93 % of control

O=S(=O)(O)C1CC2NC3C4CCCC(S(=O)(=O)O)C4C(Nc4ccccc4)CC3N(c3ccccc3)C2CC1Nc1ccccc1 (configuration not stated)
inactive: dose: 50.0 mg/kg/injection, schedule: Q01DX009 (ip), vehicle: saline 112 % of control | dose: 100.0 mg/kg/injection, schedule: Q01DX009 (ip), vehicle: saline 116 % of control | dose: 200.0 mg/kg/injection, schedule: Q01DX009 (ip), vehicle: saline 116 % of control

CC(C)N=C1NS(=O)(=O)c2ccccc21
inactive: [4] 114 % of control | [5] 97 % of control | [6] 108 % of control

CCN(CC)c1c(C)c(-c2ccccc2)oc(=O)c1Cl
inactive: [4] 100 % of control | [5] 100 % of control | [6] 115 % of control

OC(CCl)CN1CC[N+]2(CC1)CC[N+]1(CCN(CC(O)CCl)CC1)CC2 (configuration not stated)
inactive: dose: 25.0 mg/kg/injection, schedule: Q01DX005 (ip), vehicle: water 100 % of control | dose: 25.0 mg/kg/injection, schedule: Q01DX005 (iv), vehicle: water 103 % of control | dose: 25.0 mg/kg/injection, schedule: Q01DX009 (sc), vehicle: water 97 % of control | dose: 25.0 mg/kg/injection, schedule: Q03HX008 (ip), vehicle: water 106 % of control | dose: 25.0 mg/kg/injection, schedule: Q03HX016 (ip), vehicle: water 100 % of control | dose: 25.0 mg/kg/injection, schedule: Q03HX024 (ip), vehicle: water 113 % of control | dose: 50.0 mg/kg/injection, schedule: Q01DX005 (ip), vehicle: water 101 % of control and 92 % of control | dose: 50.0 mg/kg/injection, schedule: Q01DX005 (iv), vehicle: water 102 % of control and 105 % of control | dose: 50.0 mg/kg/injection, schedule: Q01DX009 (ip), vehicle: water 98 % of control | dose: 50.0 mg/kg/injection, schedule: Q01DX009 (sc), vehicle: water 104 % of control | dose: 50.0 mg/kg/injection, schedule: Q03HX008 (ip), vehicle: water 103 % of control | dose: 50.0 mg/kg/injection, schedule: Q03HX016 (ip), vehicle: water 118 % of control | dose: 50.0 mg/kg/injection, schedule: Q03HX024 (ip), vehicle: water 121 % of control | dose: 100.0 mg/kg/injection, schedule: Q01DX005 (ip), vehicle: water 109 % of control and 98 % of control | dose: 100.0 mg/kg/injection, schedule: Q01DX005 (iv), vehicle: water 100 % of control and 101 % of control | dose: 100.0 mg/kg/injection, schedule: Q01DX009 (ip), vehicle: water 103 % of control | dose: 100.0 mg/kg/injection, schedule: Q01DX009 (oral), vehicle: water 99 % of control | dose: 100.0 mg/kg/injection, schedule: Q01DX009 (sc), vehicle: water 106 % of control | dose: 100.0 mg/kg/injection, schedule: Q03HX008 (ip), vehicle: water 114 % of control | dose: 100.0 mg/kg/injection, schedule: Q03HX024 (ip), vehicle: water 123 % of control | dose: 100.0 mg/kg/injection, schedule: Q04DX003 (ip), vehicle: water 92 % of control | dose: 200.0 mg/kg/injection, schedule: Q01DX001 (ip), vehicle: water 95 % of control | dose: 200.0 mg/kg/injection, schedule: Q01DX005 (ip), vehicle: water 102 % of control and 115 % of control | dose: 200.0 mg/kg/injection, schedule: Q01DX005 (iv), vehicle: water 109 % of control | dose: 200.0 mg/kg/injection, schedule: Q01DX009 (ip), vehicle: water 117 % of control | dose: 200.0 mg/kg/injection, schedule: Q01DX009 (oral), vehicle: water 101 % of control | dose: 200.0 mg/kg/injection, schedule: Q01DX009 (sc), vehicle: water 114 % of control | dose: 200.0 mg/kg/injection, schedule: Q04DX003 (ip), vehicle: water 99 % of control | dose: 200.0 mg/kg/injection, schedule: Q08DX002 (ip), vehicle: water 95 % of control | dose: 400.0 mg/kg/injection, schedule: Q01DX001 (ip), vehicle: water 96 % of control | dose: 400.0 mg/kg/injection, schedule: Q01DX005 (iv), vehicle: water 109 % of control | dose: 400.0 mg/kg/injection, schedule: Q01DX009 (ip), vehicle: water 111 % of control | dose: 400.0 mg/kg/injection, schedule: Q01DX009 (oral), vehicle: water 101 % of control | dose: 400.0 mg/kg/injection, schedule: Q01DX009 (sc), vehicle: water 107 % of control | dose: 400.0 mg/kg/injection, schedule: Q04DX003 (ip), vehicle: water 106 % of control | dose: 400.0 mg/kg/injection, schedule: Q08DX002 (ip), vehicle: water 104 % of control | dose: 800.0 mg/kg/injection, schedule: Q01DX001 (ip), vehicle: water 100 % of control | dose: 800.0 mg/kg/injection, schedule: Q01DX009 (oral), vehicle: water 92 % of control | dose: 800.0 mg/kg/injection, schedule: Q01DX009 (sc), vehicle: water 92 % of control | dose: 800.0 mg/kg/injection, schedule: Q04DX003 (ip), vehicle: water 118 % of control | dose: 800.0 mg/kg/injection, schedule: Q08DX002 (ip), vehicle: water 113 % of control | dose: 1600.0 mg/kg/injection, schedule: Q01DX001 (ip), vehicle: water 119 % of control | dose: 1600.0 mg/kg/injection, schedule: Q08DX002 (ip), vehicle: water 120 % of control

COC(=O)Nc1nc2ccccc2[nH]1
inactive: dose: 20.0 mg/kg/injection, schedule: Q04DX003 (ip), vehicle: other 101 % of control | dose: 20.0 mg/kg/injection, schedule: Q04DX003 (oral), vehicle: other 100 % of control | dose: 40.0 mg/kg/injection, schedule: Q04DX003 (ip), vehicle: other 100 % of control | dose: 40.0 mg/kg/injection, schedule: Q04DX003 (oral), vehicle: other 101 % of control | dose: 80.0 mg/kg/injection, schedule: Q04DX003 (ip), vehicle: other 101 % of control | dose: 80.0 mg/kg/injection, schedule: Q04DX003 (oral), vehicle: other 101 % of control | dose: 160.0 mg/kg/injection, schedule: Q04DX003 (ip), vehicle: other 107 % of control | dose: 160.0 mg/kg/injection, schedule: Q04DX003 (oral), vehicle: other 105 % of control | dose: 320.0 mg/kg/injection, schedule: Q04DX003 (ip), vehicle: other 102 % of control | dose: 320.0 mg/kg/injection, schedule: Q04DX003 (oral), vehicle: other 100 % of control | dose: 640.0 mg/kg/injection, schedule: Q04DX003 (ip), vehicle: other 111 % of control | dose: 640.0 mg/kg/injection, schedule: Q04DX003 (oral), vehicle: other 102 % of control
